# Structures can show the parent of a compound that is named as a salt.
# Molecular target: T1, PDE4B (human recombinant) (Homo sapiens, UniProt Q07343)
# T1 construct: made in house
# Test: Inhibition of PDE4B activity: SPA and/or Fluorescence Polarisation (FP) assay
# Type: biochemical
# Conditions: one reading (n=1) or average of 2 or more readings, read-out: PDE4B pIC50 (±about 0.5) (converted)
# Experimental: The ability of compounds to inhibit catalytic activity at PDE4B or 4D (human recombinant), PDE3 (from bovine aorta), PDE5 (human recombinant) or PDE6 (from bovine retina) can optionally be determined by Scintillation Proximity Assay (SPA) in a 96-well format.
# The enzyme concentration is adjusted so that no more than 20% hydrolysis of the substrate defined below occurs in control wells without compound, during the incubation. For the PDE3, PDE4B and PDE4D assays, [5′,8-3H]Adenosine 3′,5′-cyclic phosphate (Amersham Pharmacia Biotech, code TRK.559; or Amersham Biosciences UK Ltd, Pollards Wood, Chalfont St Giles, Buckinghamshire HP8 4SP, UK) is added to give 0.05 uCi per well and about 10 nM final concentration. […] Plates containing assay mixture, suitably approx. 100 ul volume of assay mixture, are mixed on an orbital shaker for 5 minutes and incubated at ambient temperature for 1 hour. Phosphodiesterase SPA beads (Amersham Pharmacia Biotech, code RPNQ 0150) are added (about 1 mg per well) to terminate the assay. Plates are sealed and shaken and allowed to stand at ambient temperature for 35 minutes to 1 hour (suitably 35 minutes) to allow the beads to settle. […] Curves are analysed using ActivityBase and XLfit (ID Business Solutions Limited, 2 Ocean Court, Surrey Research Park, Guildford, Surrey GU2 7QB, United Kingdom). Results are expressed as pIC50 values.
# The ability of compounds to inhibit catalytic activity at PDE4B (human recombinant) or PDE4D (human recombinant) can optionally be determined by IMAP Fluorescence Polarisation (FP) assay (IMAP Explorer kit, available from Molecular Devices Corporation, Sunnydale, Calif., USA; Molecular Devices code: R8062) in 384-well format.
# The IMAP FP assay is able to measure PDE activity in an homogenous, non-radioactive assay format. The FP assay uses the ability of immobilised trivalent metal cations, coated onto nanoparticles (tiny beads), to bind the phosphate group of Fl-AMP that is produced on the hydrolysis of fluorescein-labelled (Fl) cyclic adenosine mono-phosphate (Fl-cAMP) to the non-cyclic Fl-AMP form. […] Binding of Fl-AMP product to the beads (coated with the immobilised trivalent cations) slows the rotation of the bound Fl-AMP and leads to an increase in the fluorescence polarisation ratio of parallel to perpendicular light. Inhibition of the PDE reduces/inhibits this signal increase.
# The enzyme level is set by experimentation so that reaction is linear throughout the incubation. Fluorescein adenosine 3′,5′-cyclic phosphate (from Molecular Devices Corporation, Molecular Devices code: R7091) is added to give about 40 nM final concentration (final assay volume usually ca. 20-40 ul, suitably ca. 20 ul). Plates are mixed on an orbital shaker for 10 seconds and incubated at ambient temperature for 40 minutes. IMAP binding reagent (as described above, from Molecular Devices Corporation, Molecular Devices code: R7207) is added (60 ul of a 1 in 400 dilution in binding buffer of the kit stock solution) to terminate the assay. Plates are allowed to stand at ambient temperature for 1 hour. The Fluorescence Polarisation (FP) ratio of parallel to perpendicular light is measured using an Analyst™ plate reader (from Molecular Devices Corporation). […] Curves are analysed using ActivityBase and XLfit (ID Business Solutions Limited, 2 Ocean Court, Surrey Research Park, Guildford, Surrey GU2 7QB, United Kingdom). Results are expressed as plC50 values.
# T1 sequence (Q07343 1-564 isoform Q07343-2): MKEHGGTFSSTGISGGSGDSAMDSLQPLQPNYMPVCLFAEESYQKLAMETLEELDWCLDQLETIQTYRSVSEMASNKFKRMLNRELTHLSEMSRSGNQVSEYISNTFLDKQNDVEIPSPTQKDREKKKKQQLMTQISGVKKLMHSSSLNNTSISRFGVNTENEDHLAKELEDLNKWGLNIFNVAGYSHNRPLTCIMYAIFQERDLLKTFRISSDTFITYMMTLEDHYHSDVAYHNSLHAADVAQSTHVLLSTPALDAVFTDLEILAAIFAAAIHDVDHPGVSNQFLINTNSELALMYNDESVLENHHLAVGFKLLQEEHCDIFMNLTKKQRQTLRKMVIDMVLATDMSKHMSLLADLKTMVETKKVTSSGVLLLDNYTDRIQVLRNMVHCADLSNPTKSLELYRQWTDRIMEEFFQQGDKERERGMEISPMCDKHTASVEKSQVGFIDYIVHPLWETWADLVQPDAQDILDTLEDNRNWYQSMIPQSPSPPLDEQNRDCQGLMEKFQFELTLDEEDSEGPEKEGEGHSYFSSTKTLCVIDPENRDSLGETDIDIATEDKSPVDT
row,Structure (SMILES),IC50 [nM]
1,"CCc1nc2c(cnn2CC)c(NC2CCOCC2)c1CNC(=O)c1ccncc1F [Example 231, N-{[1,6-diethyl-4-(tetrahydro-2H-pyran-4-ylamino)-1H-pyrazolo[3,4-b]pyridin-5-yl]methyl}-3-fluoro-4-pyridinecarboxamide]",0.126 to 1
2,"CCc1nc2c(cnn2CC)c(NC2CCN(C(N)=O)CC2)c1CN1Cc2ccccc2C1=O [Example 212, [4-({1,6-diethyl-5-[(1-oxo-1,3-dihydro-2H-isoindol-2-yl)methyl]-1H-pyrazolo[3,4-b]pyridin-4-yl}amino)-1-piperidinecarboxamide], Formate]",0.01 to 0.1
3,"CCc1nc2c(cnn2CC)c(NC2CCOCC2)c1CNS(=O)(=O)C(C)C [Example 173, N-{[1,6-diethyl-4-(tetrahydro-2H-pyran-4-ylamino)-1H-pyrazolo[3,4-b]pyridin-5-yl]methyl}-2-propanesulfonamide]",0.126 to 1
4,"CCc1nc2c(cnn2CC)c(NC2CCOCC2)c1CN1Cc2occc2C1=O [Example 198, 5-{[1,6-diethyl-4-(tetrahydro-2H-pyran-4-ylamino)-1H-pyrazolo[3,4-b]pyridin-5-yl]methyl}-5,6-dihydro-4H-furo[2,3-c]pyrrol-4-one]",0.126 to 1
5,"CCn1ncc2c(NC3CCOCC3)c(CNC(=O)c3ccc(C(N)=O)cc3)c(C)nc21 [Example 279, N-{[1-ethyl-6-methyl-4-(tetrahydro-2H-pyran-4-ylamino)-1H-pyrazolo[3,4-b]pyridin-5-yl]methyl}-1,4-benzenedicarboxamide]",0.126 to 1
6,"CCc1nc2c(cnn2CC)c(NC2CCOCC2)c1CNC(=O)c1ccoc1 [Example 154, N-{[1,6-diethyl-4-(tetrahydro-2H-pyran-4-ylamino)-1H-pyrazolo[3,4-b]pyridin-5-yl]methyl}-3-furancarboxamide]",0.126 to 1
7,"CCc1nc2c(cnn2CC)c(NC2CCN(C(N)=O)CC2)c1CNC(=O)c1cccc2c1OCC2 [Example 205, 4-[(5-{[(2,3-dihydro-1-benzofuran-7-ylcarbonyl)amino]methyl}-1,6-diethyl-1H-pyrazolo[3,4-b]pyridin-4-yl)amino]-1-piperidinecarboxamide]",0.01 to 0.1
8,"CCc1nc2c(cnn2CC)c(NC2CCN(C(N)=O)CC2)c1CNC(=O)c1ccc(NC(C)=O)cc1 [Example 242, 4-({5-[({[4-(acetylamino)phenyl]carbonyl}amino)methyl]-1,6-diethyl-1H-pyrazolo[3,4-b]pyridin-4-yl}amino)-1-piperidinecarboxamide]",0.01 to 0.1
9,"CCc1nc2c(cnn2CC)c(NC2CCOCC2)c1CNC(=O)c1nc2ccc(Cl)cc2nc1OC [Example 174, 6-chloro-N-{[1,6-diethyl-4-(tetrahydro-2H-pyran-4-ylamino)-1H-pyrazolo[3,4-b]pyridin-5-yl]methyl}-3-(methyloxy)-2-quinoxalinecarboxamide]",0.01 to 0.1
10,"CCc1nc2c(cnn2CC)c(NC2CCOCC2)c1CNC(=O)c1ccc(C(C)(C)C)cc1O [Example 256, N-{[1,6-diethyl-4-(tetrahydro-2H-pyran-4-ylamino)-1H-pyrazolo[3,4-b]pyridin-5-yl]methyl}-4-(1,1-dimethylethyl)-2-hydroxybenzamide]",0.01 to 0.1
11,"CCn1ncc2c(NC3CCN(C(N)=O)CC3)c(CNC(=O)c3ccccc3F)c(C)nc21 [Example 266, 4-{[1-ethyl-5-({[(2-fluorophenyl)carbonyl]amino}methyl)-6-methyl-1H-pyrazolo[3,4-b]pyridin-4-yl]amino}-1-piperidinecarboxamide]",0.126 to 1
12,"CCn1ncc2c(NC3CCN(C(N)=O)CC3)c(CNC(=O)c3ccc(N4CCCCC4)cc3)c(C)nc21 [Example 269, 4-({1-ethyl-6-methyl-5-[({[4-(1-piperidinyl)phenyl]carbonyl}amino)methyl]-1H-pyrazolo[3,4-b]pyridin-4-yl}amino)-1-piperidinecarboxamide]",0.01 to 0.1
13,"CCc1nc2c(cnn2CC)c(NC2CCOCC2)c1CN1Cc2ccccc2C1=O [Example 199, 2-{[1,6-diethyl-4-(tetrahydro-2H-pyran-4-ylamino)-1H-pyrazolo[3,4-b]pyridin-5-yl]methyl}-2,3-dihydro-1H-isoindol-1-one]",0.01 to 0.1
14,"CCn1ncc2c(NC3CCN(C(N)=O)CC3)c(CNC(=O)c3ccc(C(C)C)cc3)c(C)nc21 [Example 263, 4-({1-ethyl-6-methyl-5-[({[4-(1-methylethyl)phenyl]carbonyl}amino)methyl]-1H-pyrazolo[3,4-b]pyridin-4-yl}amino)-1-piperidinecarboxamide]",0.01 to 0.1
15,"CCn1ncc2c(NC3CCOCC3)c(CNS(=O)(=O)c3cccs3)c(C)nc21 [Example 108, N-{[1-ethyl-6-methyl-4-(tetrahydro-2H-pyran-4-ylamino)-1H-pyrazolo[3,4-b]pyridin-5-yl]methyl}-2-thiophenesulfonamide]",0.126 to 1

# Next, values leading:
row,IC50 [nM],Structure (SMILES)
1,0.126 to 1,"CCn1ncc2c(NC3CCOCC3)c(CNC(=O)c3ccc(C(=O)NC)cc3)c(C)nc21 [Example 283, N-{[1-ethyl-6-methyl-4-(tetrahydro-2H-pyran-4-ylamino)-1H-pyrazolo[3,4-b]pyridin-5-yl]methyl}-N′-methyl-1,4-benzenedicarboxamide]"
2,0.126 to 1,"CCn1ncc2c(NC3CCOCC3)c(CN3Cc4ccc(F)cc4C3=O)c(C)nc21 [Example 314, 2-{[1-ethyl-6-methyl-4-(tetrahydro-2H-pyran-4-ylamino)-1H-pyrazolo[3,4-b]pyridin-5-yl]methyl}-6-fluoro-2,3-dihydro-1H-isoindol-1-one]"
3,0.126 to 1,"CCc1nc2c(cnn2CC)c(NC2CCOCC2)c1CN1CCN(C)C1=O [Example 343, 1-{[1,6-diethyl-4-(tetrahydro-2H-pyran-4-ylamino)-1H-pyrazolo[3,4-b]pyridin-5-yl]methyl}-3-methyl-2-imidazolidinone]"
4,0.01 to 0.1,"CCc1nc2c(cnn2CC)c(NC2CCOCC2)c1CNC(=O)c1ccc(C(F)(F)F)o1 [Example 323, N-{[1,6-diethyl-4-(tetrahydro-2H-pyran-4-ylamino)-1H-pyrazolo[3,4-b]pyridin-5-yl]methyl}-5-(trifluoromethyl)-2-furancarboxamide]"
5,0.126 to 1,"CCn1ncc2c(NC3CCOCC3)c(CNC(=O)c3ccc(C(F)(F)F)o3)c(C)nc21 [Example 324, N-{[1-ethyl-6-methyl-4-(tetrahydro-2H-pyran-4-ylamino)-1H-pyrazolo[3,4-b]pyridin-5-yl]methyl}-5-(trifluoromethyl)-2-furancarboxamide]"
6,0.126 to 1,"CCn1ncc2c(NC3CCOCC3)c(CNC(=O)c3ccccc3F)c(C)nc21 [Example 282, N-{[1-ethyl-6-methyl-4-(tetrahydro-2H-pyran-4-ylamino)-1H-pyrazolo[3,4-b]pyridin-5-yl]methyl}-2-fluorobenzamide]"
7,0.126 to 1,"CCc1nc2c(cnn2CC)c(NC2CCOCC2)c1CNC(=O)c1cnc(C)nc1 [Example 331, N-{[1,6-diethyl-4-(tetrahydro-2H-pyran-4-ylamino)-1H-pyrazolo[3,4-b]pyridin-5-yl]methyl}-2-methyl-5-pyrimidinecarboxamide]"
8,0.01 to 0.1,"CCc1nc2c(cnn2CC)c(NC2CCN(C(N)=O)CC2)c1CNC(=O)c1ccc(C(C)(C)C)cc1O [Example 302, 4-({5-[({[4-(1,1-dimethylethyl)-2-hydroxyphenyl]carbonyl}amino)-methyl]-1,6-diethyl-1H-pyrazolo[3,4-b]pyridin-4-yl}amino)-1-piperidine-carboxamide Formate]"
9,0.126 to 1,"CCc1nc2c(cnn2CC)c(NC2CCOCC2)c1CN1Cc2nnsc2C1=O [Example 344, 5-{[1,6-diethyl-4-(tetrahydro-2H-pyran-4-ylamino)-1H-pyrazolo[3,4-b]pyridin-5-yl]methyl}-4,5-dihydro-6H-pyrrolo[3,4-d][1,2,3]thiadiazol-6-one]"

# Source: patent publication US20090131431A1, “Pyrazolo[3,4-b]pyridine compounds, and their use as a PDE4 inhibitors” (priority 2005, published 2009)
